Reference: US20250034130A1, “Crystal Form of Tolebrutinib, Preparation Method Therefor and Use Thereof” (Principia Biopharma Inc., priority 2021, published 2025)
“Also recorded” adds a separate entry of the source.

Tests used:
Type in all cases: physicochemical
[1] = Grinding stability (manual grinding 5 minutes in a mortar, XRPD); details: ground manually 5 minutes in a mortar
Method: Form CSII was grounded manually for 5 minutes in a mortar. XRPD was tested before and after the grinding.
Form CSIII was grounded manually for 5 minutes in a mortar. XRPD was tested before and after the grinding.
Form CSIV was grounded manually for 5 minutes in a mortar. XRPD was tested before and after the grinding.

[2] = Light stability (Chinese Pharmacopoeia method, purity by UPLC); details: light not less than 1.2×10^6 lux-hr, near-UV not less than 200 W-hr/m^2; for Purity change: 1 week; for Chemical purity (in words): about 1 week
Source text: (§1) The related substance in the present disclosure was detected by UPLC and the parameters are shown below.
Certain amounts of Form CSII of the present disclosure and the prior art amorphous form were weighted and stored for about 1 week, in accordance with the method of the Chinese Pharmacopoeia, under the condition that the total illumination of the light source was not less than […] and the energy of the near-ultraviolet lamp was not less than 200 W-hr/m^2, the purities of the solids before and after storage were measured by UPLC and the results are shown in Table 5.
Certain amounts of Form CSIII of the present disclosure and the prior art amorphous form were weighted and stored for about 1 week, in accordance with the method of the Chinese Pharmacopoeia, under the condition that the total illumination of the light source was not less than 1.2×10^6 lux-hr and the energy of the near-ultraviolet lamp was not less than 200 W-hr/m^2, the purities of the solids before and after storage were measured by UPLC and the results are shown in Table 12.
Certain amounts of Form CSIV of the present disclosure and the prior art amorphous form were weighted and stored for about 1 week, in accordance with the method of the Chinese Pharmacopoeia, under the condition that the total illumination of the light source was not less than 1.2×10^6 lux-hr and the energy of the near-ultraviolet lamp was not less than 200 W-hr/m^2, the purities of the solids before and after storage were measured by UPLC and the results are shown in Table 18.

[3] = Stability at high temperature (80° C., 2 days, purity by UPLC); details: for Chemical purity (in words) / Purity change: 2 days; for Purity change: glass vial with cap
Method: as §1
Certain amounts of Form CSII of the present disclosure and the prior art amorphous form were weighted and stored at 80° C. for 2 days, and the purities of the solids before and after storage were determined by UPLC, the results are as shown in Table 4.
Certain amounts of Form CSIII of the present disclosure and the prior art amorphous form were weighted and stored at 80° C. for 2 days, and the purities of the solids before and after storage were determined by UPLC, the results are as shown in Table 11.
Certain amounts of Form CSIV of the present disclosure and the prior art amorphous form were stored at 80° C. for 2 days, and the purities of the solids before and after storage were determined by UPLC, the results are as shown in Table 17.

[4] = Physical and chemical stability on storage in opened packages (purity by UPLC, solid form by XRPD); details: for Chemical purity during storing: 40° C./75% RH and 60° C./75% RH; for Impurity content versus qualification threshold: throughout the stability investigation processes
Method: X-ray powder diffraction patterns in the present disclosure were acquired by a Bruker X-ray powder diffractometer. The parameters of the X-ray powder diffraction method of the present disclosure are as follows: • X-Ray: Cu, Kα • Kα1 (Å): 1.54060; Kα2 (Å): 1.54439 • Kα2/Kα1 intensity ratio: 0.50
as §1
Said “room temperature” is not a specific temperature, but a temperature range of 10-30° C. Said “open packaged” is putting the sample into a glass vial, covering the vial with aluminum foil, and punching 5-10 holes on the foil.
Form CSII of the present disclosure and the prior art amorphous form were weighed and stored under 25° C./60% RH, 40° C./75% RH and 60° C./75% RH conditions, in opened packages, respectively. The purity and solid form were determined by UPLC and XRPD. The results are listed in Table 3, and the overlaid XRPD patterns of Form CSII before and after storage for stability evaluation are shown in FIG. 4.
Form CSIII of the present disclosure and the prior art amorphous form were weighed and stored under 25° C./60% RH, 40° C./75% RH and 60° C./75% RH conditions, in opened packages, respectively. The purity and solid form were determined by UPLC and XRPD. The results are listed in Table 10, and the overlaid XRPD patterns of Form CSIII before and after storage for stability evaluation are shown in FIG. 9.
Form CSIV of the present disclosure and the prior art amorphous form were weighed and stored under 25° C./60% RH and 40° C./75% RH conditions, in opened packages, respectively. The purity and solid form were determined by UPLC and XRPD. The results are listed in Table 16, and the overlaid XRPD patterns of Form CSIV before and after storage for stability evaluation are shown in FIG. 15.

[5] = Hygroscopicity by DVS (0% RH-95% RH-0% RH at 25° C.); details: for Weight gain relative to that of the prior art / Weight gain at 80% RH: 80% RH; for Weight gain at 80% RH: DVS; for Weight gain at 80% RH / Hygroscopicity class: 25° C.; for Crystalline state after the DVS test: XRPD before and after DVS; for Hygroscopicity class: weight gain at 80% RH
Method: DVS was measured via an SMS (Surface Measurement Systems Ltd.) intrinsic DVS instrument.
Parameters for DVS method are as follows: • Temperature: 25° C. • Gas and flow rate: nitrogen, 200 mL/min • RH range: 0% RH to 95% RH • ^1H NMR were collected from a Bruker Avance II DMX 400M HZ NMR spectrometer. 1-5 mg of sample was weighed and dissolved in 0.5 mL of deuterated dimethyl sulfoxide to obtain a solution with a concentration of 2-10 mg/mL.
Certain amounts of Form CSII of the present disclosure and the prior art amorphous form were sampled for hygroscopicity tests using DVS instrument. The weight change at each relative humidity was recorded during the cycle of 0% RH-95% RH-0% RH at 25° C.
Description and definition of hygroscopicity (general notice 9103 drug hygroscopicity test guidelines in 2020 edition of Chinese Pharmacopoeia, experimental condition: 25±1° C., 80±2% RH):
Certain amounts of Form CSIII of the present disclosure and the prior art amorphous form were sampled for hygroscopicity tests using DVS instrument. The weight change at each relative humidity was recorded during the cycle of 0% RH-95% RH-0% RH at 25° C.
Certain amounts of Form CSIV of the present disclosure and the prior art amorphous form were sampled for hygroscopicity tests using DVS instrument. The weight change at each relative humidity was recorded during the cycle of 0% RH-95% RH-0% RH at 25° C.

[6] = Stability of crystalline form in tablet formulation process (XRPD before and after); details: tablets per Table 7 and Table 8, XRPD
Method: According to the formulation and process in Table 7 and Table 8, the tablets were prepared with an appropriate amount of Form CSII of the present disclosure. XRPD was tested before and after formulation.
According to the formulation and process in Table 7 and Table 8, the tablets were prepared with an appropriate amount of Form CSIII of the present disclosure. XRPD was tested before and after formulation.
According to the formulation and process in Table 7 and Table 8, the tablets were prepared with an appropriate amount of Form CSIV of the present disclosure. XRPD was tested before and after formulation.

[7] = 25° C./60% RH, 6 months, open package
[8] = 40° C./75% RH, 6 months, open package
[9] = 60° C./75% RH, 1 month, open package
[10] = Initial, ICH Q3A (R2) thresholds

Compound	Crystalline state after grinding [1]	Purity change [2]	Chemical purity (in words) [2]	Time for which there is no change in the purity [2]	Time for which chemical purity remains substantially unchanged [3]	Chemical purity (in words) [3]	Purity change [3]	Chemical purity during storage ([4]; 25° C./60% RH)	Time for which the crystalline state doesn't change / form is stable ([4]; 25° C./60% RH)	Purity [4, 7] [%]	Purity change [4, 7]	The number of the purities exceeding the qualification thresholds [4, 7]	Time for which the crystalline state doesn't change / form is stable ([4]; 40° C./75% RH)	Chemical purity during storing [4]	Purity [4, 8] [%]	Purity change [4, 8]	The number of the purities exceeding the qualification thresholds [4, 8]	Time for which the crystalline state doesn't change ([4]; 60° C./75% RH)	Solid form and purity after storage ([4]; 60° C./75% RH, 1 month)	Purity [4, 9] [%]	also measured
C=CC(=O)N1CCC[C@@H](n2c(=O)n(-c3ccc(Oc4ccccc4)cc3)c3c(N)nccc32)C1 [Form CSII, (R)-1-(1-acryloylpiperidin-3-yl)-4-amino-3-(4-phenoxyphenyl)-1H-imidazo[4,5-c] pyridin-2(3H)-one]	remains unchanged	−0.02%	basically remained unchanged	at least 1 week	at least 2 days	basically remained unchanged	+0.01%	above 99.8%	at least 6 months	99.89	+0.03%	0	at least 6 months	above 99.8%	99.87	+0.01%	0	at least 1 month	remained basically unchanged	99.82	Purity change [4, 9]: −0.04%; The number of the purities exceeding the qualification thresholds [4, 9]: 0; Purity ([4]; Initial): 99.86%; The number of the purities exceeding the qualification thresholds [4, 10]: 0; Impurity content versus qualification threshold [4]: did not exceed the qualification thresholds; also recorded: did not exceed the qualificated threshold; Weight gain relative to that of the prior art [5]: ⅙; Weight gain at 80% RH [5]: 0.60%; Crystalline state after the DVS test [5]: remained unchanged; Hygroscopicity class [5]: slightly hygroscopic; Crystalline state after formulation process (mixed with excipients, tableted) [6]: remained unchanged; also recorded: did not change
C=CC(=O)N1CCC[C@@H](n2c(=O)n(-c3ccc(Oc4ccccc4)cc3)c3c(N)nccc32)C1 [Form CSIII, (R)-1-(1-acryloylpiperidin-3-yl)-4-amino-3-(4-phenoxyphenyl)-1H-imidazo[4,5-c] pyridin-2(3H)-one]	remains unchanged	+0.02%	basically remained unchanged	at least 1 week	at least 2 days	basically remained unchanged	+0.04%	above 99.9%	at least 6 months	99.93	+0.02%	0	at least 6 months	above 99.8%	99.91	0%	0	at least 1 month	remained basically unchanged	99.86	Solid form [4, 7]: Form CSIII; Solid form [4, 8]: Form CSIII; Purity change [4, 9]: −0.05%; Solid form [4, 9]: Form CSIII; The number of the purities exceeding the qualification thresholds [4, 9]: 0; Purity ([4]; Initial): 99.91%; Solid form ([4]; Initial): Form CSIII; The number of the purities exceeding the qualification thresholds [4, 10]: 0; Impurity content versus qualification threshold [4]: did not exceed the qualification thresholds; also recorded: did not exceed the qualificated threshold; Weight gain relative to that of the prior art [5]: ⅙; Weight gain at 80% RH [5]: 0.66%; Crystalline state after the DVS test [5]: remained unchanged; Hygroscopicity class [5]: slightly hygroscopic; Crystalline state after formulation process (mixed with excipients, tableted) [6]: remained unchanged; also recorded: did not change
